Test results: EP0884054B9, “Fixed-dose association of an angiotensin-converting enzyme inhibitor and of a calcium channel antagonist for the treatment of cardiovascular illnesses” (Procter & Gamble Pharmaceuticals S.A.R.L., priority 1997, dated 1998)
Structures can show the parent of a compound that is named as a salt. Where two headings read alike, the source gives them in different places.

Experiments:
[1] = system: rat experimentally hypertense by aortic coarctation; experiment: Antihypertensive activity in the rat experimentally hypertense by aortic coarctation (conscious animal); format: in vivo; settings: for distolic arterial pressure / systolic arterial pressure / diastolic arterial pressure: mean(SD)
Procedure: The antihypertensive activity of the association of enalapril and nitrendipine was tested in comparison with each one of the isolated components in an experimental model of hypertension by arterial coarction in the rat. Measurement of the arterial pressure was carried out with the animal conscious. The doses tested were as follows: • Enalapril maleate 1 mg/kg (p.o.) • Nitrendipine 3 mg/kg (p.o.) • Enalapril maleate and Nitrendipine (1 and 3) mg/kg (p.o.) • Enalapril maleate and Nitrendipine (0.5 and 1.5) mg/kg (p.o.) The control group received the carrier (CMC Carboxymethylcellulose 1% en distilled water), the administration volume being […] (p.o.).

[2] = system: male patients with slight-moderate AHT; experiment: Placebo-controlled open clinical trial in slight-moderate AHT; format: in vivo; settings: single-drug treatment, 5 mg once a day for 2 weeks (9 patients nitrendipine, 11 patients enalapril)
Procedure: A placebo-controlled, open clinical trial was carried out in male patients with slight-moderate AHT, defined as systolic blood pressure values (SAT) between 165 and 144 mmHg and diastolic blood pressure values (DAT) between 95 and 105 mmHg, taken in decubitus position after 5 minutes' rest.

[3] = system: patients with congestive heart failure; settings: long-term treatment (over one year), cited from earlier work
[4] = at 10 minutes; stable formulation of enalapril sodium salt according to EP-A-0545194; cited from earlier work
[5] = 1 mg/kg p.o., 0 minutes following administration
[6] = 1 mg/kg p.o., 5 minutes following administration
[7] = 1 mg/kg p.o., 15 minutes following administration
[8] = 1 mg/kg p.o., 30 minutes following administration
[9] = 1 mg/kg p.o., 45 minutes following administration
[10] = 1 mg/kg p.o., 60 minutes following administration
[11] = 1 mg/kg p.o., 120 minutes following administration
[12] = 1 mg/kg p.o., 240 minutes following administration
[13] = 1 mg/kg p.o., 360 minutes following administration
[14] = 1 mg/kg p.o., 540 minutes following administration
[15] = 3 mg/kg p.o., 0 minutes following administration
[16] = 3 mg/kg p.o., 5 minutes following administration
[17] = 3 mg/kg p.o., 15 minutes following administration
[18] = 3 mg/kg p.o., 30 minutes following administration
[19] = 3 mg/kg p.o., 45 minutes following administration
[20] = 3 mg/kg p.o., 60 minutes following administration
[21] = 3 mg/kg p.o., 120 minutes following administration
[22] = 3 mg/kg p.o., 240 minutes following administration
[23] = 3 mg/kg p.o., 360 minutes following administration
[24] = 3 mg/kg p.o., 540 minutes following administration

CCOC(=O)[C@H](CCc1ccccc1)N[C@@H](C)C(=O)N1CCC[C@H]1C(=O)O [enalapril, 1-(N-((S)-1-ethoxycarbonyl-3-fenilpropyl) -L-alanil)-L-prolina]
distolic arterial pressure [1, 5]: 138(5) | distolic arterial pressure [1, 6]: 138(3) | distolic arterial pressure [1, 7]: 123(1) | distolic arterial pressure [1, 8]: 116(4) | distolic arterial pressure [1, 9]: 117(1) | distolic arterial pressure [1, 10]: 109(1) | distolic arterial pressure [1, 11]: 116(5) | distolic arterial pressure [1, 12]: 116(3) | distolic arterial pressure [1, 13]: 117(2) | distolic arterial pressure [1, 14]: 126(4) | blood pressure normalized, number of patients [2]: 2 patients | improvement of mortality and morbidity rates ([3]; severe heart failure (CONSENSUS)): approximately 30% | improvement of mortality and morbidity rates ([3]; slight and moderate heart failure (SOLVD)): approximately 15% | dissolution rate of enalapril [4]: 100%

CCOC(=O)[C@H](CCc1ccccc1)N[C@@H](C)C(=O)N1CCC[C@H]1C(=O)O [Enalapril maleate, 1-(N-((S)-1-ethoxycarbonyl-3-fenilpropyl) -L-alanil)-L-prolina]
systolic arterial pressure [1, 5]: 168(6) | systolic arterial pressure [1, 6]: 165(5) | systolic arterial pressure [1, 7]: 144(2) | systolic arterial pressure [1, 8]: 139(3) | systolic arterial pressure [1, 9]: 139(6) | systolic arterial pressure [1, 10]: 134(1) | systolic arterial pressure [1, 11]: 141(3) | systolic arterial pressure [1, 12]: 146(1) | systolic arterial pressure [1, 13]: 148(4) | systolic arterial pressure [1, 14]: 165(6) | antihypertensive effect ([1]; oral administration, 1 mg/kg): moderate antihypertensive effect | antihypertensive effect sustained following administration ([1]; oral administration, 1 mg/kg): up to 6 hours

CCOC(=O)C1=C(C)NC(C)=C(C(=O)OC)C1c1cccc([N+](=O)[O-])c1 (racemic) [Nitrendipine, ethyl and methyl ester of the acid 1,4-dihydro-2,6-dimethyl-4-(3-nitrophenyl)-3,5-pyridindicarboxylic]
diastolic arterial pressure [1, 15]: 136(5) | systolic arterial pressure [1, 15]: 172(6) | diastolic arterial pressure [1, 16]: 105(1) | systolic arterial pressure [1, 16]: 119(2) | diastolic arterial pressure [1, 17]: 83(4) | systolic arterial pressure [1, 17]: 117(6) | diastolic arterial pressure [1, 18]: 84(2) | systolic arterial pressure [1, 18]: 112(4) | diastolic arterial pressure [1, 19]: 88(5) | systolic arterial pressure [1, 19]: 115(3) | diastolic arterial pressure [1, 20]: 92(1) | systolic arterial pressure [1, 20]: 119(6) | diastolic arterial pressure [1, 21]: 113(4) | systolic arterial pressure [1, 21]: 141(5) | diastolic arterial pressure [1, 22]: 128(3) | systolic arterial pressure [1, 22]: 163(2) | diastolic arterial pressure [1, 23]: 132(2) | systolic arterial pressure [1, 23]: 169(1) | diastolic arterial pressure [1, 24]: 131(5) | systolic arterial pressure [1, 24]: 160(5) | return to basal values following administration ([1]; oral administration, 3 mg/kg): 4 h | blood pressure normalized, number of patients [2]: 1 patients
